One test concerns the target human tPA (Homo sapiens, UniProt P00750). Nature of the test: tPA inhibition assay with chromogenic substrate S-2288 (Dixon plot, Cornish-Bowden plot). In kind it is biochemical. The following applies: for Mode of inhibition (Cornish-Bowden S/Vo vs I plot): tPA; for Ki: S-2288, 75 nM human tPA, PBS pH 7.4, Dixon plot.
Another test deals with human thrombin (Homo sapiens, UniProt P00734). Nature of the test: Thrombin inhibition assay with fluorogenic Thrombin Substrate III (Dixon plot, Cornish-Bowden plot). It is filed as biochemical. The following applies: for Ki: TSIII, 0.25 U/mL human thrombin, PBS pH 7.4 at 10% DMSO, Dixon plot; for Mode of inhibition (Cornish-Bowden S/Vo vs I plot): thrombin.
In test [1] the target is T1, plasmin (Homo sapiens, UniProt P00747). The test is described as follows: Annular fibrin clot assay (FITC-tagged fibrin clot lysis by plasmin). It is filed as biochemical. The following applies: for IC50/Ki: annular clot IC50 over S-2251 plasmin Ki.
T1 sequence (P00747 97-580 limits assumed): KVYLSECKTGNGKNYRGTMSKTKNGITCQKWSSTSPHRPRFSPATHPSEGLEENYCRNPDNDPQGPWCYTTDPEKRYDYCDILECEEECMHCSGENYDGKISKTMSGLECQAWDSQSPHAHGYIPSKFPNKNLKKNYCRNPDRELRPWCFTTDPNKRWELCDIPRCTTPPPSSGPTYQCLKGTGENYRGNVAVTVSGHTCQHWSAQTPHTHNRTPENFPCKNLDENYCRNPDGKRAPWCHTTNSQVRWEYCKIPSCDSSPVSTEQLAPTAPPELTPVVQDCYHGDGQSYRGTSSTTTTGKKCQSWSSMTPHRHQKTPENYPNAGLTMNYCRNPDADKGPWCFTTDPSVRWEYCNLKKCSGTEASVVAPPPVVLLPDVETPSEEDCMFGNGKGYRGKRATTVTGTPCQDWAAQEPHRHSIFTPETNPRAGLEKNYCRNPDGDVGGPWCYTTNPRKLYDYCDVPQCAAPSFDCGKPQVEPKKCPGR
T1 sequence (P00747 581-810 limits assumed): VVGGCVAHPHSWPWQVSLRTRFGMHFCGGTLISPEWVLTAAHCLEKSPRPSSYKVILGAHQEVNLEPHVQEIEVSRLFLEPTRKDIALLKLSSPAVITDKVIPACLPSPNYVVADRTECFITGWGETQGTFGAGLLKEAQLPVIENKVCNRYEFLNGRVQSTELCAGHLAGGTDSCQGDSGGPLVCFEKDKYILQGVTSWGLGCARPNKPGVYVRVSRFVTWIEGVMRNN
The target of test [2] is T1, plasmin. Conditions: read-out: Plasmin Ki; S-2251, 42.5 nM human plasmin, Dixon plot; previously determined; cited from earlier work.
In test [3] the target is T1, plasmin. The test is described as follows: Plasmin inhibition assay with chromogenic substrate S-2251 (Dixon plot, Cornish-Bowden plot). Conditions: for Mode of inhibition (Cornish-Bowden S/Vo vs I plot) / rpAMB (KiAMB/Kihetero) / rpTXA (KiTXA/Kihetero): plasmin; for Ki: read-out: Plasmin Ki, S-2251, 42.5 nM human plasmin, PBS pH 7.4, Dixon plot. In kind it is biochemical.

The target of test [4] is LBS on kringle domains of plasmin. Conditions: cited from earlier work.
Test [5] deals with plasmin. The following applies: read-out: Plasmin active site Ki reported in the literature; cited from earlier work.

“And” between values parts separate entries of the source, which are not always exact repeats. Equal entries are not always repeated. Where two headings read alike, the source gives them in different places.

Sequence of human tPA (P00750 36-562): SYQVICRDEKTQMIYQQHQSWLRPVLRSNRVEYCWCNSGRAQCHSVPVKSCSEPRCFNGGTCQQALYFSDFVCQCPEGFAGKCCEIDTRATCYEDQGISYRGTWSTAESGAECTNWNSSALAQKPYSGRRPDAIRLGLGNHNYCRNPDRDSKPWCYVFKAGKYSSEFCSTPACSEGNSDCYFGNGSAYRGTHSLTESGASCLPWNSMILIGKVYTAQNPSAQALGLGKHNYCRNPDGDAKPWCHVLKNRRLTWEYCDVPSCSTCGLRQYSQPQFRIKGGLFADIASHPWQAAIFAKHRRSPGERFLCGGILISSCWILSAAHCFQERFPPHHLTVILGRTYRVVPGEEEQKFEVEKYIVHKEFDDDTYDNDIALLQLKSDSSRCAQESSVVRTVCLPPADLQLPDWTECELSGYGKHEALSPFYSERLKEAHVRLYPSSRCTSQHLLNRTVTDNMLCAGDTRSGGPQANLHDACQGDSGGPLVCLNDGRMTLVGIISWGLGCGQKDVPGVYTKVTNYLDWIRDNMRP

In the case of `N=C(N)c1ccc(CN)cc1` [4-aminomethyl benzamidine, reference compound], the “Mode of inhibition (Cornish-Bowden S/Vo vs I plot)” value at human tPA and at human thrombin was “competitive inhibitor” throughout. Moreover, the Ki (in general, a measure of affinity in units of concentration, obtained from inhibition or displacement) on human tPA (tPA Ki) is 5210 µM; at human thrombin (Thrombin Ki), 344 µM; at plasmin [2], 1070 µM. Further, the IC50 (in general, the point on the concentration scale where inhibition reaches its midpoint) against plasmin [1] was found to be 32700 µM. Moreover, the IC50/Ki against plasmin [1] is on record as 29.0.
In the case of `N=C(N)c1ccc(CNC(=O)CCOCCOCCOCCOCCOCCOCCOCCOCCOCCOCCOCCOCCOCCOCCOCCOCCOCCOCCOCCOCCOCCOCCOCCOCCOCCOCCOCCOCCOCCOCCOCCOCCOCCOCCOCCOCCNC(=O)[C@H]2CC[C@H](CN)CC2)cc1` [TXA-dPEG36-AMB], the “Mode of inhibition (Cornish-Bowden S/Vo vs I plot)” value at plasmin [3] is given as “competitive inhibitor”; on human tPA, “not to be a solely competitive inhibitor”; at human thrombin, “competitive inhibitor”. In addition, on plasmin [3], the “rpAMB (KiAMB/Kihetero)” value came to 14. For the same compound, the “rpTXA (KiTXA/Kihetero)” value on plasmin [3] amounted to 285. Also, the Ki on plasmin [3] was 75.4 µM and 75 µM; on human tPA (read-out: tPA Ki), 136 ± 0.7 µM; on human thrombin (read-out: Thrombin Ki), 77.5 µM and 78 µM.
In the case of `N=C(N)c1ccc(CNC(=O)CCOCCOCCOCCOCCOCCOCCOCCOCCOCCOCCOCCOCCNC(=O)[C@H]2CC[C@H](CN)CC2)cc1` [TXA-dPEG12-AMB], the “Mode of inhibition (Cornish-Bowden S/Vo vs I plot)” value at plasmin [3], on human tPA and on human thrombin was “competitive inhibitor” throughout. The “rpAMB (KiAMB/Kihetero)” value at plasmin [3] is listed as 5. In addition, on plasmin [3], the “rpTXA (KiTXA/Kihetero)” value came to 103. In addition, the Ki at plasmin [3] is 207 ± 4.1 µM; on human tPA (read-out: tPA Ki), 641 µM; at human thrombin (read-out: Thrombin Ki), 45.7 µM and 46 µM.
With `N=C(N)c1ccc(CNC(=O)CN(CC(=O)NCc2ccc(C(=N)N)cc2)CC(=O)NCc2ccc(C(=N)N)cc2)cc1` [Tri-AMB], the Ki on human tPA (read-out: tPA Ki) is 164 ± 17 µM; at human thrombin (read-out: Thrombin Ki) it was 10.7 µM and 11 µM. For the same compound, the “Mode of inhibition (Cornish-Bowden S/Vo vs I plot)” value on human tPA and on human thrombin was “competitive inhibitor” in each case. Besides, the IC50 on plasmin [1] (read-out: Annular IC50, 850 nM plasmin, annular fibrin clot, from Vmax) was 7.7 ± 3 µM.
As to `N=C(N)c1ccc(N)cc1` [4-amino benzamidine, reference compound], the “Mode of inhibition (Cornish-Bowden S/Vo vs I plot)” value at human tPA and at human thrombin was “competitive inhibitor” throughout. For the same compound, the values for the Ki at human tPA (tPA Ki) and at plasmin [2] were 148 µM and 51 ± 2.4 µM, respectively. Also, half-maximal inhibition on plasmin [1] (IC50) required 451 ± 70 µM.
For `N=C(N)c1ccc(C(=O)O)cc1` [4-carboxy benzamidine, reference compound], the Ki on human thrombin (Thrombin Ki) is 151 µM; at plasmin [2], 292 ± 6.5 µM. For the same compound, on human thrombin, the “Mode of inhibition (Cornish-Bowden S/Vo vs I plot)” value was “competitive inhibitor”.
For `N=C(N)c1ccc(CNC(=O)CCOCCOCCOCCOCCOCCOCCOCCOCCNC(=O)[C@H]2CC[C@H](CN)CC2)cc1` [TXA-dPEG8-AMB], the figures for the “Mode of inhibition (Cornish-Bowden S/Vo vs I plot)” value on plasmin [3], on human tPA and at human thrombin were “competitive inhibitor”, “not to be a solely competitive inhibitor” and “competitive inhibitor”, respectively. For the same compound, the “rpAMB (KiAMB/Kihetero)” value at plasmin [3] came to 11. The “rpTXA (KiTXA/Kihetero)” value at plasmin [3] is given as 216. Moreover, the Ki at plasmin [3] is 99.4 µM and 99 µM; at human tPA (read-out: tPA Ki) it was 292 ± 0.4 µM; at human thrombin (read-out: Thrombin Ki) it was 32.4 µM and 32 µM.
Consider `NC[C@H]1CC[C@H](C(=O)O)CC1` [TXA, Tranexamic acid], for which the “Mode of inhibition (Cornish-Bowden S/Vo vs I plot)” value on plasmin [3] was “weak competitive inhibitor”. In addition, the Ki in test [4] (read-out: Ki for LBS on the K1 domain of plasmin, K1 domain) is 1.1 µM; in test [4] (read-out: Ki for the other plasmin kringle domain LBS, other kringle domains) it was approximately 750 µM; on plasmin [5], approximately 40000 µM.
With `N=C(N)c1ccc(CNC(=O)CCOCCOCCOCCOCCNC(=O)CCCCCN)cc1` [EACA-dPEG4-AMB], the “Mode of inhibition (Cornish-Bowden S/Vo vs I plot)” value on plasmin [3], at human tPA and on human thrombin was “competitive inhibitor” in each case. Further, the Ki on plasmin [3] is 233 ± 5 µM; at human tPA (read-out: tPA Ki), 501 µM; on human thrombin (read-out: Thrombin Ki) it was 4.05 µM and 4 µM. Besides, on human thrombin (EACA-dPEG4-AMB vs TXA-dPEG4-AMB, monovalent EACA vs monovalent TXA), the “fold stronger inhibitor of thrombin than the TXA counterpart” value was found to be 3 fold.
Take `NCCCCCC(=O)O` [EACA, ɛ-aminocaproic acid, reference compound]: the “Mode of inhibition (Cornish-Bowden S/Vo vs I plot)” value on plasmin [3] was “weak competitive inhibitor”; at human tPA, “weak competitive inhibitor”; on human thrombin, “competitive inhibitor”. Moreover, the affinity at human thrombin (Thrombin Ki), expressed as Ki, was 65200 µM.
On to `N=C(N)c1ccccc1` [Benzamidine, reference compound], for which the “Mode of inhibition (Cornish-Bowden S/Vo vs I plot)” value at human tPA and at human thrombin was “competitive inhibitor” in each case.
Take `N=C(N)c1ccc(CNC(=O)CCOCCOCCOCCOCCNC(=O)[C@H]2CC[C@H](CN)CC2)cc1` [TXA-dPEG4-AMB]: the “Mode of inhibition (Cornish-Bowden S/Vo vs I plot)” value on plasmin [3], on human tPA and at human thrombin was “competitive inhibitor” throughout. Besides, at plasmin [3], the “rpAMB (KiAMB/Kihetero)” value is on record as 26. In addition, the “rpTXA (KiTXA/Kihetero)” value on plasmin [3] came out at 509. Besides, the Ki is 42 ± 12 µM at plasmin [3]; 230 µM and 231 µM on human tPA (read-out: tPA Ki); 14.5 µM and 14 µM on human thrombin (read-out: Thrombin Ki).
In the case of `N=C(N)c1ccc(OCCCCCOc2ccc(C(=N)N)cc2)cc1` [Pentamidine, reference compound], the “Mode of inhibition (Cornish-Bowden S/Vo vs I plot)” value on human tPA and at human thrombin was “competitive inhibitor” throughout. Besides, the Ki was 42.7 µM and 43 µM at human tPA (tPA Ki); 4.48 µM and 4.5 µM on human thrombin (Thrombin Ki). The compound further gave an IC50 at plasmin [1] of 3.2 ± 1 µM. The same compound registered an IC50/Ki against plasmin [1] of 1.5.

The record behind these values is article PMC12186753 (ACS pharmacology & translational science, 2025).
